Reference: PubChem BioAssay AID1919003 (Molecular Pharmacology Branch, DTP, NCI, 2023)
pIC50: −log10 of the molar value.

Tested on: 786-0 complex spheroids with HUVEC/MSC, growth % test/control
Assay: Anticancer human tumor 786-0 cell line growth inhibition [AhR];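 also: compound exposure lasted seven days before the read-out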
Settings: for pIC50: curve of first compound; for viability, T/C: stronger effect = lower value
Method in brief: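 Complex tumor spheroids co-cultured with HUVEC and human MSC stroma; AhR antagonists tested in combination with standard-of-care and investigational agents. Top concentration at or near clinical Cmax (else 10 microM), half-log dilutions; growth expressed as percent test/control.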

[1] = second compound 0.1 µM, first compound 0.0316 µM
[2] = second compound 0.1 µM, first compound 0.1 µM
[3] = second compound 0.1 µM, first compound 0.316 µM
[4] = second compound 0.1 µM, first compound 1 µM
[5] = second compound 0.316 µM, first compound 0.0316 µM
[6] = second compound 0.316 µM, first compound 0.1 µM
[7] = second compound 0.316 µM, first compound 0.316 µM
[8] = second compound 0.316 µM, first compound 1 µM
[9] = second compound 1 µM, first compound 0.0316 µM
[10] = second compound 1 µM, first compound 0.1 µM
[11] = second compound 1 µM, first compound 0.316 µM
[12] = second compound 1 µM, first compound 1 µM
[13] = second compound 3.16 µM, first compound 0.0316 µM
[14] = second compound 3.16 µM, first compound 0.1 µM
[15] = second compound 3.16 µM, first compound 0.316 µM
[16] = second compound 3.16 µM, first compound 1 µM
[17] = second compound 10 µM, first compound 0.0316 µM
[18] = second compound 10 µM, first compound 0.1 µM
[19] = second compound 10 µM, first compound 0.316 µM
[20] = second compound 10 µM, first compound 1 µM

CC1COCCN1c1cc(-c2ccnn2C)c2ccnc(-c3ccn[nH]3)c2n1 (stereo not given) + CC(CO)NC(=O)c1cc(-c2ccc(Cl)cc2)nn(-c2cnn(C)c2)c1=O
pIC50 (second compound 0.1 µM): 6.87
pIC50 (second compound 0.316 µM): 6.96
pIC50 (second compound 1 µM): 7.01
pIC50 (second compound 3.16 µM): 7.10
pIC50 (second compound 10 µM): 7.29
viability, T/C (second compound 0.1 µM, first compound 0.00316 µM): 100%
viability, T/C (second compound 0.1 µM, first compound 0.01 µM): 100%
viability, T/C [1]: 106%
viability, T/C [2]: 63.5%
viability, T/C [3]: 11.1%
viability, T/C [4]: 3.76%
viability, T/C (second compound 0.316 µM, first compound 0.00316 µM): 112%
viability, T/C (second compound 0.316 µM, first compound 0.01 µM): 103%
viability, T/C [5]: 105%
viability, T/C [6]: 53.3%
viability, T/C [7]: 7.31%
viability, T/C [8]: 3.22%
viability, T/C (second compound 1 µM, first compound 0.00316 µM): 97.6%
viability, T/C (second compound 1 µM, first compound 0.01 µM): 110%
viability, T/C [9]: 104%
viability, T/C [10]: 49%
viability, T/C [11]: 8.48%
viability, T/C [12]: 3.85%
viability, T/C (second compound 3.16 µM, first compound 0.00316 µM): 112%
viability, T/C (second compound 3.16 µM, first compound 0.01 µM): 114%
viability, T/C [13]: 103%
viability, T/C [14]: 36.7%
viability, T/C [15]: 6.89%
viability, T/C [16]: 3.57%
viability, T/C (second compound 10 µM, first compound 0.00316 µM): 116%
viability, T/C (second compound 10 µM, first compound 0.01 µM): 109%
viability, T/C [17]: 78.5%
viability, T/C [18]: 10.1%
viability, T/C [19]: 2.89%
viability, T/C [20]: 2.73%

CC1COCCN1c1cc(C2(S(C)(=N)=O)CC2)nc(-c2ccnc3[nH]ccc23)n1 (stereo not given) + CC(CO)NC(=O)c1cc(-c2ccc(Cl)cc2)nn(-c2cnn(C)c2)c1=O
pIC50 (second compound 0.1 µM): 5.52
pIC50 (second compound 0.316 µM): 5.56
pIC50 (second compound 1 µM): 5.58
pIC50 (second compound 3.16 µM): 5.59
pIC50 (second compound 10 µM): 5.68
viability, T/C [1]: 99.7%
viability, T/C [2]: 99.5%
viability, T/C [3]: 98.1%
viability, T/C [4]: 99.4%
viability, T/C (second compound 0.1 µM, first compound 3.16 µM): 48%
viability, T/C (second compound 0.1 µM, first compound 10 µM): 15.7%
viability, T/C [5]: 101%
viability, T/C [6]: 110%
viability, T/C [7]: 96.2%
viability, T/C [8]: 101%
viability, T/C (second compound 0.316 µM, first compound 3.16 µM): 43.6%
viability, T/C (second compound 0.316 µM, first compound 10 µM): 17.3%
viability, T/C [9]: 108%
viability, T/C [10]: 102%
viability, T/C [11]: 113%
viability, T/C [12]: 97.4%
viability, T/C (second compound 1 µM, first compound 3.16 µM): 41.3%
viability, T/C (second compound 1 µM, first compound 10 µM): 13.7%
viability, T/C [13]: 108%
viability, T/C [14]: 101%
viability, T/C [15]: 118%
viability, T/C [16]: 107%
viability, T/C (second compound 3.16 µM, first compound 3.16 µM): 37.5%
viability, T/C (second compound 3.16 µM, first compound 10 µM): 10.8%
viability, T/C [17]: 110%
viability, T/C [18]: 118%
viability, T/C [19]: 115%
viability, T/C [20]: 93.6%
viability, T/C (second compound 10 µM, first compound 3.16 µM): 25.5%
viability, T/C (second compound 10 µM, first compound 10 µM): 8.6%
